Here are results for two compounds from US9884063B2, “Amido-substituted azole compounds” (Bayer Pharma Aktiengesellschaft, priority 2014, dated 2018).

One may read the IC50 as the concentration that inhibits the measured activity by half. A low value points to inhibition by little substance.

Assay [1] has as its target T1, TNKS1 (Homo sapiens, UniProt O95271).
T1 sequence (O95271 1-1327): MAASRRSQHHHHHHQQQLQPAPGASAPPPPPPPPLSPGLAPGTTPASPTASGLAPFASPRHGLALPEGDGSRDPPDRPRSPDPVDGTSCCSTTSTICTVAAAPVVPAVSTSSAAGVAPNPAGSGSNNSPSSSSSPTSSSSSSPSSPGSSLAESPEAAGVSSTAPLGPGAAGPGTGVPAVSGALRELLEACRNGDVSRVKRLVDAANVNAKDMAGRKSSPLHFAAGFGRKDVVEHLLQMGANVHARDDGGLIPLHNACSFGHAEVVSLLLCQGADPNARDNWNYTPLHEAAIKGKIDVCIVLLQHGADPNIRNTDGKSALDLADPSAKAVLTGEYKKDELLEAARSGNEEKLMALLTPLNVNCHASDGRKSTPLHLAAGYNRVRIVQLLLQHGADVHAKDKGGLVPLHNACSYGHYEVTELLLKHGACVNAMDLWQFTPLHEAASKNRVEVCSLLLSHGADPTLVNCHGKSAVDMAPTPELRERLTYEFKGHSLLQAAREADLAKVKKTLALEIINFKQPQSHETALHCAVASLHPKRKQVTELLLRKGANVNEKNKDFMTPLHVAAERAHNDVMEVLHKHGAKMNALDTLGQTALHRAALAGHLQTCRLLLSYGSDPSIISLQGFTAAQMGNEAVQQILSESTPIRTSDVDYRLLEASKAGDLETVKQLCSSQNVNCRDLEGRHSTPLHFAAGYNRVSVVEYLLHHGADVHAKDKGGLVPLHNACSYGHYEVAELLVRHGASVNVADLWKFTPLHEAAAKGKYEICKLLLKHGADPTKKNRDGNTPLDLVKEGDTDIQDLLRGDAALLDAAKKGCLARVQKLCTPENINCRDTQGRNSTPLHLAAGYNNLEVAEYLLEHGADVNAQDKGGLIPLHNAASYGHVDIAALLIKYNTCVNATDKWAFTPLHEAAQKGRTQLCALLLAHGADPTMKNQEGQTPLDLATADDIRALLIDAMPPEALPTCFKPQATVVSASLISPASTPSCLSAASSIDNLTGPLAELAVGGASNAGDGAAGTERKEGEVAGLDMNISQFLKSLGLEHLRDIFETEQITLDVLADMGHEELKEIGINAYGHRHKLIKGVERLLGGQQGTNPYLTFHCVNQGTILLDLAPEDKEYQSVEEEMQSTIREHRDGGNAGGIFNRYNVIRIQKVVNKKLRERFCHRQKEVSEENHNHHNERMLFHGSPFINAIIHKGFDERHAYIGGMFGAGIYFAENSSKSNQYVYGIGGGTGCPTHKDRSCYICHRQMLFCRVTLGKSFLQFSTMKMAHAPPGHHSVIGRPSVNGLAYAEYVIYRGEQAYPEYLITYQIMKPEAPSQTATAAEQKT
The experiment in a line: Modified TNKS1 Assay 2 (auto-parsylation, [3H]-NAD+ SPA). In kind it is biochemical. The following applies: 6 nM TNKS1, 96 well.

The subject of assay [2] is wildtype Wnt signaling cascade. The experiment in a line: HEK293 TOP Assay (Super TopFlash luciferase reporter, Wnt-3a stimulated). It is filed as cell-based. The following applies: Homo sapiens, HEK293, 16 h, HEK293 TOP reporter cell line, Wnt-3a at EC50, 16 hours incubation, compound dilution series 50 μM to 15 nM. An outline of the steps: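 HEK293 cells stably carrying Super TopFlash (TOP) or FOP reporter, stimulated with recombinant human Wnt-3a (2500–5 ng/ml, two-fold steps). Both lines incubated in parallel with compound from 50 μM to 15 nM (3.16-fold) in CAFTY buffer pH 7.4 with 2 mM Ca2+ and 0.01% BSA; selectivity judged TOP vs FOP.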
(In a reporter assay the amount or activity of a reporter protein is the signal.)

Consider `CCNC(=O)c1nc[nH]c1C(=O)Nc1ccc(NC(=O)c2ccccc2S(C)(=O)=O)cc1` [Example 257, N^4-ethyl-N^5-(4-{[2-(methylsulfonyl)benzoyl]amino}phenyl)-1H-imidazole-4,5-dicarboxamide], for which the IC50 in assay [1] came out at 7800 nM; in assay [2], 2600 nM.
With `CCNC(=O)c1nc[nH]c1C(=O)Nc1ccc(NC(=O)c2ccc(OCC)cc2Cl)cc1` [Example 259, N^5-{4-[(2-chloro-4-ethoxybenzoyl)amino]phenyl}-N^4-ethyl-1H-imidazole-4,5-dicarboxamide], the values for the IC50 in assay [1] and in assay [2] were 300 nM and 880 nM, respectively.
